Values after ≈ are worked out from the molar mass of the structure shown. Where two headings read alike, the source gives them in different places.
Columns and labels:
[1] = tested on: neonate CBW (cotton bollworm) larvae; test: Percent control of neonate CBW larvae by A83543 components, topical pipet method; format: in vivo, Heliothis zea; settings: for mortality at 0.5 ppm / mortality at 1 ppm / mortality at 5 ppm / mortality at 10 ppm: 24 h, read-out: Percent Control
Method: Each test compound was formulated by dissolving the compound in an acetone/alcohol (1:1) mixture containing 23 g of "Toximul R" (sulfonate/nonionic emulsifier blend) and 13 g of "Toximul S" (sulfonate/nonionic emulsifier blend) per liter. These mixtures were then diluted with water to give the indicated concentrations.
Additional insects were evaluated using similar formulations and evaluation procedures, with the exceptions noted.
After standard exposure periods, percent mortality was evaluated. The following abbreviations are used:
^1 Treatments with the same letter in parentheses are similar at the
^2 Topical pipet method with 20 larve/replicate and 4 replicates; one
day between treatment and observation.

[2] = tested on: first instar yellow fever mosquito larvae; test: In vitro mosquito larvicide test, first instar; settings: Aedes aegypti, 24 h, lowest concentration with 100% inhibition after 24 hr, microtiter plates; read-out: Minimal Inhibitory Concentration
Text: (§1) The A83543 components were active against yellow fever mosquito (Aedes aegypti) larvae in standard in vitro mosquito larvicide tests.

[3] = tested on: fourth instar yellow fever mosquito larvae; test: whole plant or invertebrate; set-up: species or system Aedes aegypti; settings: 24 hr; for mortality at 0.312 ppm: Aedes aegypti, read-out: Percent Control
Text: as §1
^a At 24 hr when treated at 0.312 ppm

Spodoptera eridania = test: Outdoor pot tests against Southern armyworm; format: in vivo
Text: Table XV compares the effectiveness and persistence of A83543A treatment with that of methomyl in outdoor pot tests against Southern armyworm.

[4] = tested on: CRW (Southern corn rootworm); test: LC50 against CRW; format: in vivo, Diabrotica undecimpunctata howardi; settings: rate in soil by wt.
Text: (§2) ^a Corn rootworm rate in soil by wt.; all others as spray

Grain Aphid = test: LC50 against Grain Aphid; format: in vivo; settings: Sitobion avenae; spray concentration
Text: as §2

[5] = tested on: SM (twospotted spider mite); test: LC50 against SM; format: in vivo; settings: Tetranychus urticae; spray concentration
Text: as §2

SAW (Southern armyworm) = test: LC50 against SAW, foliar; format: in vivo; settings: Spodoptera eridania, spray concentration
Text: as §2

CBW (cotton bollworm) = test: LC50 against CBW, contact; format: in vivo, Heliothis zea; settings: spray concentration
Text: as §2

adult stable fly (ASF) [6] = test: In vitro efficacy, exposure of ASF to chemically added serum samples; settings: Stomoxys calcitrans, read-out: Percent insect mortality
Text: (§3) ^1 Percent insect mortality following 24 to 48 hrs. in vitro exposure
(§4) to chemically added serum samples

blow fly larvae (LBF) [7] = test: In vitro efficacy, exposure of LBF to chemically added serum samples
Text: as §3, §4

blow fly larvae (LBF) [8] = test: Guinea pig systemic test, blow fly larvae; format: in vivo
Method: (§5) Adult guinea pigs are used in this test system. The compounds to be tested are dissolved in aqueous polyvinyl pyrrolidone or in polyethylene glycol 200, and an appropriate amount of the solution is administered either orally or by intraperitoneal injection.
(§6) Blood is drawn from the guinea pigs at 30 minutes except as noted, and the samples of blood are centrifuged. Dental wicks are saturated with the blood serum, and then exposed in Petri dishes to adult stable flies; blow fly larvae are exposed in test tubes. After 24 and 48 hours, the insects are examined, and the number of dead are counted. The results of the tests are recorded as the percent of the insects which are killed.

adult stable fly (ASF) [9] = test: Guinea pig systemic test, adult stable fly; format: in vivo, Stomoxys calcitrans
Method: as §5, §6

[10] = 0.5 ppm, topical pipet, one day

CC[C@H]1CCC[C@H](O[C@H]2CC[C@H](N)[C@@H](C)O2)[C@@H](C)C(=O)C2=C[C@@H]3[C@@H](C=C[C@@H]4C[C@@H](O[C@@H]5O[C@@H](C)[C@H](OC)[C@@H](OC)[C@H]5OC)C[C@@H]34)[C@@H]2CC(=O)O1 [A83543C]
mortality at 0.5 ppm [1, 10]: 5% | mortality at 1 ppm ([1]; 1 ppm, topical pipet, one day): 85% | mortality at 5 ppm ([1]; 5 ppm, topical pipet, one day): 93% | mortality at 10 ppm ([1]; 10 ppm, topical pipet, one day): 100% | MIC [2]: 0.031 µg/mL (≈ 0.044 µM) | mortality at 0.312 ppm [3]: 60%

CNC(=O)ON=C(C)SC [methomyl, reference compound]
mortality at 63 ppm (Spodoptera eridania; 24 h, 1 day after treatment): 100% | mortality at 125 ppm (Spodoptera eridania; 24 h, 1 day after treatment): 100% | mortality at 250 ppm (Spodoptera eridania; 24 h, 1 day after treatment): 100% | mortality at 500 ppm (Spodoptera eridania; 24 h, 1 day after treatment): 100% | mortality at 63 ppm (Spodoptera eridania; 120 h, 5 days after treatment): 20% | mortality at 125 ppm (Spodoptera eridania; 120 h, 5 days after treatment): 35% | mortality at 250 ppm (Spodoptera eridania; 120 h, 5 days after treatment): 85% | mortality at 500 ppm (Spodoptera eridania; 120 h, 5 days after treatment): 90% | mortality at 63 ppm (Spodoptera eridania; 168 h, 7 days after treatment): 15% | mortality at 125 ppm (Spodoptera eridania; 168 h, 7 days after treatment): 40% | mortality at 250 ppm (Spodoptera eridania; 168 h, 7 days after treatment): 45% | mortality at 500 ppm (Spodoptera eridania; 168 h, 7 days after treatment): 85% | mortality at 63 ppm (Spodoptera eridania; 336 h, 14 days after treatment): 0% | mortality at 125 ppm (Spodoptera eridania; 336 h, 14 days after treatment): 20% | mortality at 250 ppm (Spodoptera eridania; 336 h, 14 days after treatment): 40% | mortality at 500 ppm (Spodoptera eridania; 336 h, 14 days after treatment): 60% | LC50 [4]: 6 µg/mL (≈ 37 µM) | LC50 (Grain Aphid): 5.4 µg/mL (≈ 33.3 µM) | LC50 [5]: 71.4 µg/mL (≈ 440 µM) | LC50 (SAW (Southern armyworm)): 11.4 µg/mL (≈ 70.3 µM) | LC50 (CBW (cotton bollworm)): 14.5 µg/mL (≈ 89.4 µM)

CC[C@H]1CCC[C@H](O[C@H]2CC[C@H](NC)[C@@H](C)O2)[C@@H](C)C(=O)C2=C[C@@H]3[C@@H](C=C[C@@H]4C[C@@H](O[C@@H]5O[C@@H](C)[C@H](OC)[C@@H](OC)[C@H]5OC)C[C@@H]34)[C@@H]2CC(=O)O1 [A83543B]
mortality at 0.5 ppm [1, 10]: 35% | mortality at 1 ppm ([1]; 1 ppm, topical pipet, one day): 80% | mortality at 5 ppm ([1]; 5 ppm, topical pipet, one day): 100% | mortality at 10 ppm ([1]; 10 ppm, topical pipet, one day): 100% | MIC [2]: 0.016 µg/mL (≈ 0.0223 µM) | mortality at 0.312 ppm [3]: 60%

CC[C@H]1CCC[C@H](O[C@H]2CC[C@H](N(C)C)[C@@H](C)O2)[C@@H](C)C(=O)C2=C[C@@H]3[C@@H](C=C(C)[C@@H]4C[C@@H](O[C@@H]5O[C@@H](C)[C@H](OC)[C@@H](OC)[C@H]5OC)C[C@@H]34)[C@@H]2CC(=O)O1 [A83543D]
mortality at 0.5 ppm ([1]; topical): 58% | mortality at 1 ppm ([1]; topical): 90% | mortality at 5 ppm ([1]; topical): 100% | mortality at 10 ppm ([1]; topical): 100% | mortality at 0.312 ppm [3]: 30% | mortality at 0.312 ppm (adult stable fly (ASF) [6]; 24 hr): 0% | mortality at 0.312 ppm (adult stable fly (ASF) [6]; 48 hr): 0% | mortality at 0.625 ppm (adult stable fly (ASF) [6]; 24 hr): 0% | mortality at 0.625 ppm (adult stable fly (ASF) [6]; 48 hr): 60% | mortality at 1.25 ppm (adult stable fly (ASF) [6]; 24 hr): 10% | mortality at 1.25 ppm (adult stable fly (ASF) [6]; 48 hr): 90% | mortality at 2.5 ppm (adult stable fly (ASF) [6]; 24 hr): 20% | mortality at 2.5 ppm (adult stable fly (ASF) [6]; 48 hr): 100% | mortality at 5 ppm (adult stable fly (ASF) [6]; 24 hr): 20% | mortality at 5 ppm (adult stable fly (ASF) [6]; 48 hr): 90% | mortality at 10 ppm (adult stable fly (ASF) [6]; 24 hr): 50% | mortality at 10 ppm (adult stable fly (ASF) [6]; 48 hr): 100% | Percent insect mortality (blow fly larvae (LBF) [7]; 0.312 ppm, 24 hr): 25% | Percent insect mortality (blow fly larvae (LBF) [7]; 0.312 ppm, 48 hr): 25% | Percent insect mortality (blow fly larvae (LBF) [7]; 0.625 ppm, 24 hr): 50% | Percent insect mortality (blow fly larvae (LBF) [7]; 0.625 ppm, 48 hr): 75% | Percent insect mortality (blow fly larvae (LBF) [7]; 1.25 ppm, 24 hr): 80% | Percent insect mortality (blow fly larvae (LBF) [7]; 1.25 ppm, 48 hr): 90% | Percent insect mortality (blow fly larvae (LBF) [7]; 2.5 ppm, 24 hr): 90% | Percent insect mortality (blow fly larvae (LBF) [7]; 2.5 ppm, 48 hr): 100% | Percent insect mortality (blow fly larvae (LBF) [7]; 5 ppm, 24 hr): 90% | Percent insect mortality (blow fly larvae (LBF) [7]; 5 ppm, 48 hr): 100% | Percent insect mortality (blow fly larvae (LBF) [7]; 10 ppm, 24 hr): 100% | Percent insect mortality (blow fly larvae (LBF) [7]; 10 ppm, 48 hr): 100% | % Activity LBF (blow fly larvae (LBF) [8]; 10 mg/kg IP, bled 30 min): 0% | % Activity LBF (blow fly larvae (LBF) [8]; 10 mg/kg IP, bled 5 hr): 0% | % Activity LBF (blow fly larvae (LBF) [8]; 10 mg/kg IP, bled 24 hr): 0% | % Activity LBF (blow fly larvae (LBF) [8]; 30 mg/kg IP, bled 30 min): 0% | % Activity LBF (blow fly larvae (LBF) [8]; 30 mg/kg IP, bled 5 hr): 0% | % Activity LBF (blow fly larvae (LBF) [8]; 30 mg/kg IP, bled 24 hr): 0% | % Activity LBF (blow fly larvae (LBF) [8]; 50 mg/kg IP, bled 30 min): 75% | % Activity LBF (blow fly larvae (LBF) [8]; 50 mg/kg IP, bled 5 hr): 0% | % Activity LBF (blow fly larvae (LBF) [8]; 50 mg/kg IP, bled 24 hr): 25% | % Activity ASF (adult stable fly (ASF) [9]; 10 mg/kg IP, bled 30 min): 0% | % Activity ASF (adult stable fly (ASF) [9]; 10 mg/kg IP, bled 5 hr): 0% | % Activity ASF (adult stable fly (ASF) [9]; 10 mg/kg IP, bled 24 hr): 10% | % Activity ASF (adult stable fly (ASF) [9]; 30 mg/kg IP, bled 30 min): 0% | % Activity ASF (adult stable fly (ASF) [9]; 30 mg/kg IP, bled 5 hr): 0% | % Activity ASF (adult stable fly (ASF) [9]; 30 mg/kg IP, bled 24 hr): 0% | % Activity ASF (adult stable fly (ASF) [9]; 50 mg/kg IP, bled 30 min): 0% | % Activity ASF (adult stable fly (ASF) [9]; 50 mg/kg IP, bled 5 hr): 0% | % Activity ASF (adult stable fly (ASF) [9]; 50 mg/kg IP, bled 24 hr): 0%

CO[C@@H]1[C@@H](OC)[C@H](C)O[C@@H](O[C@H]2C[C@H]3[C@@H]4C=C5C(=O)[C@H](C)[C@@H](O[C@H]6CC[C@H](N(C)C)[C@@H](C)O6)CCC[C@H](C)OC(=O)C[C@H]5[C@@H]4C=C[C@@H]3C2)[C@@H]1OC [A83543E]
mortality at 0.5 ppm ([1]; topical): 28% | mortality at 1 ppm ([1]; topical): 58% | mortality at 5 ppm ([1]; topical): 100% | mortality at 10 ppm ([1]; topical): 100% | mortality at 0.312 ppm [3]: 80%

CC[C@H]1CCC[C@H](O[C@H]2CC[C@@H](N(C)C)[C@@H](C)O2)[C@@H](C)C(=O)C2=C[C@@H]3[C@@H](C=C[C@@H]4C[C@@H](O[C@@H]5O[C@@H](C)[C@H](OC)[C@@H](OC)[C@H]5OC)C[C@@H]34)[C@@H]2CC(=O)O1 [A83543G]
Percent Control ([1]; 0.5 ppm, topical pipet, one day, 1440 min): 0% | Percent Control ([1]; 1 ppm, topical pipet, one day): 0% | Percent Control ([1]; 5 ppm, topical pipet, one day, 1440 min): 20% | Percent Control ([1]; 10 ppm, topical pipet, one day, 1440 min): 80% | Percent Control ([3]; 0.312 ppm): 0%

CC[C@H]1CCC[C@H](O[C@H]2CC[C@H](N(C)C)[C@@H](C)O2)CC(=O)C2=C[C@@H]3[C@@H](C=C[C@@H]4C[C@@H](O[C@@H]5O[C@@H](C)[C@H](OC)[C@@H](OC)[C@H]5OC)C[C@@H]34)[C@@H]2CC(=O)O1 [A83543F]
mortality at 0.5 ppm [1, 10]: 0% | mortality at 1 ppm ([1]; 1 ppm, topical pipet, one day): 0% | mortality at 5 ppm ([1]; 5 ppm, topical pipet, one day): 0% | mortality at 10 ppm ([1]; 10 ppm, topical pipet, one day): 95% | mortality at 0.312 ppm [3]: 0%

— patent publication US5362634A, “Process for producing A83543 compounds” (DowElanco, priority 1991, dated 1994)
